Reference: patent US5399340A, “Use of amide complex compounds” (Schering Aktiengesellschaft, priority 1989, dated 1995)

How the values were obtained:
[1] = T1 relaxation in plasma; format: physicochemical
[2] = T1 relaxation in water; format: physicochemical
[3] = cited from earlier work

| Structure (SMILES) | T1 relaxation [1] [mmol⁻¹ s⁻¹] | T1 relaxation [2] [mmol⁻¹ s⁻¹] | distribution ([3]; intravenous injection) | passage of intact cell membranes and extrarenal excretion ([3]; intravenous injection) | route of excretion ([3]; intravenous injection) | rate of excretion in renal insufficiency ([3]; patients with limited kidney function) |
| --- | --- | --- | --- | --- | --- | --- |
| C[NH2+]C[C@H](O)[C@@H](O)[C@H](O)[C@H](O)CO.O=C([O-])CN(CCN(CC(=O)[O-])CC(=O)[O-])CCN(CC(=O)[O-])CC(=O)Nc1ccccc1.[Gd+3] [Example 2, N-Methylglucamine Salt of the Gadolinium Complex of 3,6,9-Tris(carboxymethyl)-3,6,9-triazaundecanedioic Acid Phenyl Monoamide] | 5.45 ± 0.68 | 3.79 ± 0.16 |  |  |  |  |
| CNC[C@H](O)[C@@H](O)[C@H](O)[C@H](O)CO.CNC[C@H](O)[C@@H](O)[C@H](O)[C@H](O)CO.O=C([O-])CN(CCN(CC(=O)[O-])CC(=O)O)CCN(CC(=O)[O-])CC(=O)O.[Gd+3] [MAGNEVIST] |  |  | extra-cellular | practically not at all observed | excreted via the kidneys by glomerular secretion | excreted only very slowly |
